# Data reported in patent publication US10519159B2, “Antiviral aliphatic ester prodrugs of tenofovir” (Merck Sharp & Dohme Corp., priority 2016, dated 2019).
# Where two headings read alike, the source gives them in different places.
# Assays:
# HIV-1 (H9/IIIB strain) = experiment: Multiple round HIV-1 infection assay (Viking assay) in MT4-GFP cells; assay type: cell-based; conditions: Table 1, MT4-GFP cells infected with HIV-1 H9/IIIB
# Description: Assessing Antiviral Potency in a Multiple Round HIV-1 Infection Assay (Viking Assay)
# The antiviral activity of the tenofovir prodrugs of the Examples herein was assessed in an assay that measures the rate of replication of HIV in cell culture, termed the Viking assay (Viral KINetics in Green cells) and performed as follows. HIV-1 replication was monitored using MT4-gag-GFP clone D3 (hereafter designated MT4-GFP), which are MT-4 cells modified to harbor a GFP reporter gene, the expression of which is dependent on the HIV-1 expressed proteins tat and rev. Productive infection of an MT4-GFP cell with HIV-1 results in GFP expression approximately 24 h post-infection. MT4-GFP cells were maintained at 37° C./5% CO2/90% relative humidity in RPMI 1640 supplemented with 10% fetal bovine serum, 100 U/ml penicillin/streptomycin, and 400 μg/ml G418 to maintain the reporter gene. For infections, MT4-GFP cells were placed in the same medium lacking G418 and infected overnight with HIV-1 (H9/IIIB strain) virus at an approximate multiplicity of infection of 0.01 in the same incubation conditions. Cells were then washed and re-suspended in either RPMI 1640 supplemented with 10% or 50% normal human serum (NHS) at 1.6×10^5 cells/mL (10% NHS or 50% NHS, respectively). Compound plates were prepared by dispensing compounds dissolved in DMSO into wells of 384 well poly-D-lysine-coated plates (0.2 μl/well) using an ECHO acoustic dispenser. Each compound was tested in a 10-point serial 3-fold dilution (typical final concentrations: 8.4 μM-0.42 nM). Controls included no inhibitor (DMSO only) and a combination of three antiviral agents (efavirenz, indinavir, an in-house integrase strand transfer inhibitor at final concentrations of 4 μM each). Cells were added (50 μL/well) to compound plates and the infected cells were maintained at 37° C./5% CO2/90% relative humidity.
# Infected cells were quantified at two time points, ˜48 h and ˜72 h post-infection, by counting the number of green cells in each well using an Acumen eX3 scanner. The increase in the number of green cells over ˜24 h period gives the reproductive ratio, R0, which is typically 5-15 and has been shown experimentally to be in logarithmic phase (data not shown). Inhibition of R0 is calculated for each well, and IC50s determined by non-linear 4-parameter curve fitting.
# [1] = Prodrug stability assay in bio-relevant media (FaSSIF with pancreatin), GI tract stability; assay type: in vitro ADME; conditions: Table 1; % parent: HPLC peak area of prodrug at 5 h / 0 h, 0.5 mg/mL pancreatin in FaSSIF, 37° C.
# Description: Prodrug Stability Assay in Bio-Relevant Media
# The following assay was employed to evaluate the stability of the prodrugs in simulated gastrointestinal tract conditions. Preparation of fasted state simulated intestinal fluid (FaSSIF) using Phares SIF Powder was carried out according to protocols from Phare Drug Delivery AG (Baselland, Switzerland). For sample preparation, 10 μL stock solutions (10 mM) of prodrug substance in DMSO was added to 990 μL of 0.5 mg/mL Pancreatin solution (Fisher CAS #8049-47-6) in FaSSIF. Two samples were prepared for each compound. If the sample was a clear solution, it was directly analyzed by HPLC. If the sample was not clear, the sample was […], maintained at 37° C. and observed 5 h later. If the sample was clear, HPLC analysis was directly performed. If the sample was still not clear, the sample was diluted with 100% ACN and assayed by HPLC. All the samples were vortexed for 3 min and observed before injection. For the diluted samples, the area is multiplied by a dilution factor when the data is analyzed. The analysis was carried out with an Agilent 1100 series HPLC with autosampler. The column was a Poroshell 120 EC-C18, 4.6×50 mm, 2.7 μm. The flow rate was 1.8 mL/min, and the injection volume was 5 or 10 μL. UV detection was in the range 210-400 nm. The mobile phase consisted of solvent A (water plus 10 mM tetrabutylammonium bromide) and solvent B (acetonitrile) with a gradient of: 90% solvent A at 0 min, changing to 95% solvent B over 6 min, maintaining for 1.5 min, then reverting to 90% solvent A over 1.6 min. The HPLC peak area of the prodrug at 5 h was divided by the HPLC peak area of the prodrug at 0 h, to generate the % claimed parent ratio, which is summarized in Table 1 for gastrointestinal (GI) Tract stability.
# [2] = 10% normal human serum, read-out: Viking, IC50 (10% NHS)
# [3] = 50% normal human serum, read-out: Viking, IC50 (50% NHS)
# [4] = read-out: Viking, IC50 (10% NHS), 10% normal human serum
# [5] = read-out: Viking, IC50 (50% NHS), 50% normal human serum
smiles,measurement,setting,value
"CC(C)OC(=O)C[C@H](C)OP(=O)(CO[C@H](C)Cn1cnc2c(N)ncnc21)NC(C)(C)C(=O)OC(C)C (single isomer, unassigned) [Example 10A]",IC50,HIV-1 (H9/IIIB strain); [2],11.4 nM
same,IC50,HIV-1 (H9/IIIB strain); [3],71.7 nM
same,GI Tract stability,[1],99.75%
"CCCOC(=O)C(C)(C)NP(=O)(CO[C@H](C)Cn1cnc2c(N)ncnc21)OCCc1cccc(C(=O)OC(C)C)c1 (single isomer, unassigned) [Example 11A]",IC50,HIV-1 (H9/IIIB strain); [2],2.18 nM
same,IC50,HIV-1 (H9/IIIB strain); [3],6.39 nM
same,GI Tract stability,[1],88.58%
"CCCOC(=O)C(C)(C)NP(=O)(CO[C@H](C)Cn1cnc2c(N)ncnc21)SCCC(=O)OC(C)C (single isomer, unassigned) [Example 12A]",IC50,HIV-1 (H9/IIIB strain); [4],75.4 nM
same,IC50,HIV-1 (H9/IIIB strain); [5],322 nM
same,GI Tract stability,[1],96.69%
"CCCOC(=O)C(C)(C)NP(=O)(CO[C@H](C)Cn1cnc2c(N)ncnc21)SCCC(=O)OC(C)C (single isomer, unassigned) [Example 12B]",IC50,HIV-1 (H9/IIIB strain); [4],13 nM
same,IC50,HIV-1 (H9/IIIB strain); [5],38.6 nM
same,GI Tract stability,[1],54.83%
"CCCSC(=O)C(C)(C)NP(=O)(CO[C@H](C)Cn1cnc2c(N)ncnc21)OCCC(=O)OC(C)C (single isomer, unassigned) [Example 13A]",IC50,HIV-1 (H9/IIIB strain); [2],5.08 nM
same,IC50,HIV-1 (H9/IIIB strain); [3],21.9 nM
same,GI Tract stability,[1],76.99%
"CCCOC(=O)C(C)(C)NP(=O)(CO[C@H](C)Cn1cnc2c(N)ncnc21)OCc1cccc(C(=O)OC(C)C)c1 (single isomer, unassigned) [Example 14A]",IC50,HIV-1 (H9/IIIB strain); [2],1.71 nM
same,IC50,HIV-1 (H9/IIIB strain); [3],7.58 nM
same,GI Tract stability,[1],96.71%
